In patent publication US10570129B2 (Zoetis Services LLC, priority 2015, dated 2020):

Assays:
Haemonchus contortus L3 = assay: microbe, parasite or virus in culture; format: cell-based; conditions: for minimal effective concentration: Haemonchus contortus, 96 h, read-out: HcL3 Minimal Effective Concentration (MEC)
D. immitis microfilariae = assay: Dirofilaria immitis, microfilariae (DiMF) in vitro motility assay; format: cell-based; conditions: for minimal effective concentration: Dirofilaria immitis, 72 h, read-out: DiMF minimally effective dose (MEC)

Structure (SMILES): N#Cc1ccc(/C=C/CN2CCc3c(c4cc5c(cc4n3C(=O)NCc3ccnc(Cl)c3)COC5)C2)cc1 [Example 479, (E)-N-((2-chloropyridin-4-yl)methyl)-8-(3-(4-cyanophenyl)allyl)-1,3,6,7,8,9-hexahydro-5H-furo[3,4-f]pyrido[4,3-b]indole-5-carboxamide]
- minimal effective concentration (Haemonchus contortus L3): 1 µM
- minimal effective concentration (D. immitis microfilariae): > 100 µM

Structure (SMILES): N#Cc1ccc(/C=C/CN2CCc3c(c4cc(C#N)ccc4n3C(=O)NCc3ccnc(Cl)c3)C2)cc1 [Example 91, (E)-N-((2-chloropyridin-4-yl)methyl)-8-cyano-2-(3-(4-cyanophenyl)allyl)-1,2,3,4-tetrahydro-5H-pyrido[4,3-b]indole-5-carboxamide]
- minimal effective concentration (Haemonchus contortus L3): 0.4 µM
- minimal effective concentration (D. immitis microfilariae): 13.5 µM

Structure (SMILES): COc1cc2c3c(n(C(=O)NCc4ccnc(Cl)c4)c2cc1C#N)CCN(C/C=C/c1ccc(Cl)cc1)C3 [Example 493, (E)-2-(3-(4-chlorophenyl)allyl)-N-((2-chloropyridin-4-yl)methyl)-7-cyano-8-methoxy-1,2,3,4-tetrahydro-5H-pyrido[4,3-b]indole-5-carboxamide]
- minimal effective concentration (Haemonchus contortus L3): 1 µM
- minimal effective concentration (D. immitis microfilariae): 5.7 µM

Structure (SMILES): O=C(NCc1ccnc(Cl)c1)n1c2c(c3ccc(N4CCOCC4)cc31)CN(C/C=C/c1ccc(Cl)c(Cl)c1)CC2 [Example 508, (E)-N-((2-chloropyridin-4-yl)methyl)-2-(3-(3,4-dichlorophenyl)allyl)-7-morpholino-1,2,3,4-tetrahydro-5H-pyrido[4,3-b]indole-5-carboxamide]
- minimal effective concentration (Haemonchus contortus L3): 1.6 µM
- minimal effective concentration (D. immitis microfilariae): 9 µM

Structure (SMILES): N#Cc1ccc2c(c1)c1c(n2C(=O)NCc2ccnc(F)c2)CCN(C/C=C/c2cc(Br)cs2)C1 [Example 126, (E)-2-(3-(4-bromothiophen-2-yl)allyl)-8-cyano-N-((2-fluoropyridin-4-yl)methyl)-1,2,3,4-tetrahydro-5H-pyrido[4,3-b]indole-5-carboxamide]
- minimal effective concentration (Haemonchus contortus L3): > 100 µM
- minimal effective concentration (D. immitis microfilariae): > 100 µM

Structure (SMILES): N#Cc1cc2c3c(n(C(=O)NCc4ccnc(Cl)c4)c2cc1F)CCN(C/C=C/c1ccc(Cl)cc1)C3 [Example 178, (E)-2-(3-(4-chlorophenyl)allyl)-N-((2-chloropyridin-4-yl)methyl)-8-cyano-7-fluoro-1,2,3,4-tetrahydro-5H-pyrido[4,3-b]indole-5-carboxamide]
- minimal effective concentration (Haemonchus contortus L3): 0.3 µM
- minimal effective concentration (D. immitis microfilariae): > 100 µM

Structure (SMILES): O=C(NCc1cnc(Cl)s1)n1c2c(c3c(Cl)c(Cl)ccc31)CN(C/C=C/c1ccc(Cl)cc1)CC2 [Example 295, (E)-8,9-dichloro-2-(3-(4-chlorophenyl)allyl)-N-((2-chlorothiazol-5-yl)methyl)-1,2,3,4-tetrahydro-5H-pyrido[4,3-b]indole-5-carboxamide]
- minimal effective concentration (Haemonchus contortus L3): > 100 µM
- minimal effective concentration (D. immitis microfilariae): 18.2 µM

Structure (SMILES): O=C(NCc1cnc(Cl)s1)n1c2c(c3cccc(Cl)c31)CN(C/C=C/c1ccc(Cl)cc1)CC2 [Example 273, (E)-6-chloro-2-(3-(4-chlorophenyl)allyl)-N-((2-chlorothiazol-5-yl)methyl)-1,2,3,4-tetrahydro-5H-pyrido[4,3-b]indole-5-carboxamide]
- minimal effective concentration (Haemonchus contortus L3): > 100 µM
- minimal effective concentration (D. immitis microfilariae): 18.2 µM

Structure (SMILES): N#Cc1ccc2c3c(n(C(=O)NCc4ccnc(F)c4)c2c1)CCN(C/C=C/c1ccc(Cl)c(F)c1F)C3 [Example 53, (E)-2-(3-(4-chloro-2,3-difluorophenyl)allyl)-7-cyano-N-((2-fluoropyridin-4-yl)methyl)-1,2,3,4-tetrahydro-5H-pyrido[4,3-b]indole-5-carboxamide]
- minimal effective concentration (Haemonchus contortus L3): 5.7 µM
- minimal effective concentration (D. immitis microfilariae): > 100 µM

Structure (SMILES): O=C(NCc1ccnc(F)c1)n1c2c(c3cc(F)c(Cl)cc31)CN(C/C=C/c1cc(F)c(F)c(F)c1)CC2 [Example 315, (E)-7-chloro-8-fluoro-N-((2-fluoropyridin-4-yl)methyl)-2-(3-(3,4,5-trifluorophenyl)allyl)-1,2,3,4-tetrahydro-5H-pyrido[4,3-b]indole-5-carboxamide]
- minimal effective concentration (Haemonchus contortus L3): 1 µM
- minimal effective concentration (D. immitis microfilariae): 5.7 µM

Structure (SMILES): O=C(NCc1cnc(Cl)s1)n1c2c(c3ccc(OC(F)(F)F)cc31)CN(C/C=C/c1ccc(Cl)cc1)CC2 [Example 382, (E)-2-(3-(4-chlorophenyl)allyl)-N-((2-chlorothiazol-5-yl)methyl)-7-(trifluoromethoxy)-1,2,3,4-tetrahydro-5H-pyrido[4,3-b]indole-5-carboxamide]
- minimal effective concentration (Haemonchus contortus L3): 3.3 µM
- minimal effective concentration (D. immitis microfilariae): 10 µM

Structure (SMILES): NC(=O)c1ccc2c3c(n(C(=O)NCc4ccnc(Cl)c4)c2c1)CCN(C/C=C/c1ccc(F)cc1)C3 [Example 466, (E)-N^5-((2-chloropyridin-4-yl)methyl)-2-(3-(4-fluorophenyl)allyl)-1,2,3,4-tetrahydro-5H-pyrido[4,3-b]indole-5,7-dicarboxamide]
- minimal effective concentration (Haemonchus contortus L3): > 100 µM
- minimal effective concentration (D. immitis microfilariae): 3.3 µM

Structure (SMILES): N#Cc1ccc(/C=C/CN2CCc3c(c4ccc(Cl)cc4n3C(=O)NCc3ccnc(Cl)c3)C2)cc1F [Example 208, (E)-7-chloro-N-((2-chloropyridin-4-yl)methyl)-2-(3-(4-cyano-3-fluorophenyl)allyl)-1,2,3,4-tetrahydro-5H-pyrido[4,3-b]indole-5-carboxamide]
- minimal effective concentration (Haemonchus contortus L3): 1.8 µM
- minimal effective concentration (D. immitis microfilariae): > 100 µM

Structure (SMILES): N#Cc1ccc2c(c1)c1c(n2C(=O)NCc2ccnc(Cl)c2)CCN(C/C=C/c2c(F)cc(Cl)cc2F)C1 [Example 74, (E)-2-(3-(4-chloro-2,6-difluorophenyl)allyl)-N-((2-chloropyridin-4-yl)methyl)-8-cyano-1,2,3,4-tetrahydro-5H-pyrido[4,3-b]indole-5-carboxamide]
- minimal effective concentration (Haemonchus contortus L3): 0.2 µM
- minimal effective concentration (D. immitis microfilariae): > 100 µM

Structure (SMILES): N#Cc1ccc2c3c(n(C(=O)NCc4ccnc(Cl)c4)c2c1)CCN(C/C=C/c1ccc(F)cc1Cl)C3 [Example 24, (E)-2-(3-(2-chloro-4-fluorophenyl)allyl)-N-((2-chloropyridin-4-yl)methyl)-7-cyano-1,2,3,4-tetrahydro-5H-pyrido[4,3-b]indole-5-carboxamide]
- minimal effective concentration (Haemonchus contortus L3): 5.7 µM
- minimal effective concentration (D. immitis microfilariae): 7.6 µM

Structure (SMILES): O=C(NCc1ccnc(F)c1)n1c2c(c3ccc(OC(F)(F)F)cc31)CN(C/C=C/c1ccc(Cl)c(F)c1)CC2 [Example 369, (E)-2-(3-(4-chloro-3-fluorophenyl)allyl)-N-((2-fluoropyridin-4-yl)methyl)-7-(trifluoromethoxy)-1,2,3,4-tetrahydro-5H-pyrido[4,3-b]indole-5-carboxamide]
- minimal effective concentration (Haemonchus contortus L3): 1 µM
- minimal effective concentration (D. immitis microfilariae): 10 µM

Structure (SMILES): N#Cc1ccc(/C=C/CN2CCc3c(c4cc(C(F)(F)F)ccc4n3C(=O)NCc3ccnc(O)c3)C2)cc1 [Example 454, (E)-2-(3-(4-cyanophenyl)allyl)-N-((2-hydroxypyridin-4-yl)methyl)-8-(trifluoromethyl)-1,2,3,4-tetrahydro-5H-pyrido[4,3-b]indole-5-carboxamide]
- minimal effective concentration (Haemonchus contortus L3): > 100 µM
- minimal effective concentration (D. immitis microfilariae): > 100 µM

Structure (SMILES): O=C(NCc1ccnc(Cl)c1)N1c2ccc(Cl)cc2C2CN(C/C=C/c3ccc(Cl)cc3)CCC21 (centres unmarked) [Example 516, (E)-8-chloro-2-(3-(4-chlorophenyl)allyl)-N-((2-chloropyridin-4-yl)methyl)-1,2,3,4,4a,9b-hexahydro-5H-pyrido[4,3-b]indole-5-carboxamide]
- HcL3 Minimal Effective Concentration (MEC) (Haemonchus contortus L3): 0.3 µM
- DiMF minimally effective dose (MEC) (D. immitis microfilariae): 10.0 µM

Structure (SMILES): O=C(NCc1ccnc(F)c1)n1c2c(c3cc(F)c(Cl)cc31)CN(C/C=C/c1ccc(Cl)cc1F)CC2 [Example 310, (E)-7-chloro-2-(3-(4-chloro-2-fluorophenyl)allyl)-8-fluoro-N-((2-fluoropyridin-4-yl)methyl)-1,2,3,4-tetrahydro-5H-pyrido[4,3-b]indole-5-carboxamide]
- minimal effective concentration (Haemonchus contortus L3): 1.3 µM
- minimal effective concentration (D. immitis microfilariae): 24.5 µM

Structure (SMILES): Cc1ccc2c(c1)c1c(n2C(=O)NCc2ccnc(Cl)c2)CCN(C/C=C/c2ccc(F)cc2)C1 [Example 433, (E)-N-((2-chloropyridin-4-yl)methyl)-2-(3-(4-fluorophenyl)allyl)-8-methyl-1,2,3,4-tetrahydro-5H-pyrido[4,3-b]indole-5-carboxamide]
- minimal effective concentration (Haemonchus contortus L3): 0.5 µM
- minimal effective concentration (D. immitis microfilariae): 5.7 µM

Structure (SMILES): CSc1ccc2c(c1)c1c(n2C(=O)NCc2ccnc(Cl)c2)CCN(C/C=C/c2ccc(F)c(F)c2)C1 [Example 446, (E)-N-((2-chloropyridin-4-yl)methyl)-2-(3-(3,4-difluorophenyl)allyl)-8-(methylthio)-1,2,3,4-tetrahydro-5H-pyrido[4,3-b]indole-5-carboxamide]
- minimal effective concentration (Haemonchus contortus L3): 0.5 µM
- minimal effective concentration (D. immitis microfilariae): 3.3 µM

Structure (SMILES): O=C(NCc1ccnc(Cl)c1)n1c2c(c3ccc(N4CCOCC4)cc31)CN(C/C=C/c1ccc(Cl)c(F)c1)CC2 [Example 509, (E)-2-(3-(4-chloro-3-fluorophenyl)allyl)-N-((2-chloropyridin-4-yl)methyl)-7-morpholino-1,2,3,4-tetrahydro-5H-pyrido[4,3-b]indole-5-carboxamide]
- minimal effective concentration (Haemonchus contortus L3): 1 µM
- minimal effective concentration (D. immitis microfilariae): 18.2 µM

Structure (SMILES): O=C(NCc1ccnc(Cl)c1)n1c2c(c3c(C(F)(F)F)cc(F)cc31)CN(C/C=C/c1ccc(Cl)cc1)CC2 [Example 322, (E)-2-(3-(4-chlorophenyl)allyl)-N-((2-chloropyridin-4-yl)methyl)-7-fluoro-9-(trifluoromethyl)-1,2,3,4-tetrahydro-5H-pyrido[4,3-b]indole-5-carboxamide]
- minimal effective concentration (Haemonchus contortus L3): 5.7 µM
- minimal effective concentration (D. immitis microfilariae): 10 µM

Structure (SMILES): N#Cc1ccc(/C=C/CN2CCc3c(c4c(Br)cccc4n3C(=O)NCc3ccnc(Cl)c3)C2)cc1 [Example 442, (E)-9-bromo-N-((2-chloropyridin-4-yl)methyl)-2-(3-(4-cyanophenyl)allyl)-1,2,3,4-tetrahydro-5H-pyrido[4,3-b]indole-5-carboxamide]
- minimal effective concentration (Haemonchus contortus L3): 10 µM
- minimal effective concentration (D. immitis microfilariae): 10 µM

Structure (SMILES): O=C(NCc1ccnc(Cl)c1)n1c2c(c3c(OC(F)(F)F)cccc31)CN(C/C=C/c1ccc(C(F)(F)F)cc1)CC2 [Example 363, (E)-N-((2-chloropyridin-4-yl)methyl)-9-(trifluoromethoxy)-2-(3-(4-(trifluoro-methyl)phenyl)allyl)-1,2,3,4-tetrahydro-5H-pyrido[4,3-b]indole-5-carboxamide]
- minimal effective concentration (Haemonchus contortus L3): > 100 µM
- minimal effective concentration (D. immitis microfilariae): 33 µM
